According to PMC8231256, “Influence of N-Methylation and Conformation on Almiramide Anti-Leishmanial Activity” (Molecules, 2021):
Values joined by “and” are separate entries in the source; they are usually repeats but may differ in a detail not shown here. Equal entries are not always repeated. Where two headings read alike, the source gives them in different places. Where a SMILES comes first, the peptide text is derived from it. [ ]: non-standard residue; d: D form. The star is where a group is joined. NMeF = CN[C@@H](Cc1ccccc1)C(=O)O; NMeV = CN[C@H](C(=O)O)C(C)C; Hept6ynoyl = C#CCCCCC(=O)*; NMeA = CN[C@@H](C)C(=O)O; NH(CH2)6NH2 = NCCCCCCN*

Columns and labels:
Leishmania donovani = test system: Leishmania donovani; parameters: method as in PMID 20441198; details: cited from earlier work; for selectivity index (CC50/EC50): Vero kidney cells CC50 vs L. donovani
[1] = LM-1 macrophage cytotoxicity (Alamar Blue); type: cell-based, murine; details: for CC50 at 24 h: mouse
Description: The host cytotoxicity was evaluated by monitoring the survival rates of murine LM-1 macrophage at different concentrations of peptides 15–37 ([…]) over 24 h. […] Exceptionally, MeAla peptide amide 21 was 3.2- to 8-fold less toxic than the other peptide analogs.
The LM1- macrophages were grown in DMEM supplemented with 10% heat inactivated FBS. Cells at the concentration of 100,000 cells/mL were cultivated for 24 h in a 96-well plate (37 °C, 5% CO2). The culture medium was removed and fresh medium containing the appropriate drug and concentration was added to the cells, which were incubated for 24 h (37 °C, 5% CO2). Seven different concentrations were tested ([…]) as well as controls (without drugs). After 24 h, the culture medium was removed and replaced for fresh medium containing 10% Alamar Blue (Thermo Fisher Scientific, Waltham, MA, USA) and incubated for 2 h (37 °C, 5% CO2). Readings at 570 and 600 nm (Asys UVM340 Plate reader, Biochrom, Cambridge, UK) were taken and analyzed according to the manufacturer protocol. Survival rates at different drug concentrations and CC50 values were calculated using the Excel software.

[2] = test system: L. infantum MF200.5 (resistant to miltefosine) promastigotes; type: cell-based, Leishmania infantum; details: strain resistant to 200 µM miltefosine; promastigotes, 72 h, 25 °C; 95% CI in brackets (n = 3); read-out: Ldi MF-Res EC50
Description: (§1) The biological activity of peptides 15–37 was assessed against the L. infantum wild-type stain (WT), as well as mutants resistant to the common anti-leishmanial agents, such as antimony (Sb^III), amphotericin B (AmB) and miltefosine (MF): Sb2000.1, AmB1000.1 and MF200.5. Activity against Leishmania promastigotes was determined by monitoring the replication of parasites after 72 h of incubation at 25 °C in the presence of increasing concentrations of the different peptides […] and reported as EC50 values (Table 2). […] The greatest potencies were observed using analogs against the amphotericin B resistant strain (e.g., AmB1000.1).
(§2) The L. infantum (MHOM/MA/67/ITMAP-263) wild-type stain (WT), as well as the resistant mutants Sb2000.1, AmB1000.1 and MF200.5 [53, 54, 55, 56, 57, 58], resistant to antimony (Sb^III), amphotericin B (AmB) and miltefosine (MF), respectively, were grown in M199 medium at 25 °C supplemented with 10% fetal bovine serum, 5 μg/mL of haemin at pH 7.0 and 2000 μM Sb (Potassium antimonyl tartrate, Sigma-Aldrich), 200 μM of MF (Miltefosine, Cayman Chem., Ann Arbor, MI, USA) or 1 μM AmB (Amphotericin B solution, Sigma, Oakville, ON, Canada). Antileishmanial values were determined in Leishmania promastigotes by monitoring the replication of parasites after 72 h of incubation at 25 °C in the presence of increasing concentrations of the different peptides by measuring A600 using a Cytation 5 machine (BioTek, Winooski, VT, USA). EC50 values were calculated based on dose–response curves analyzed by non-linear regression with GraphPad Prism 8.4.3 software (GraphPad Software, La Jolla, CA, USA). An average of at least three independent biological replicates from independent cultures was performed for each determination.

[3] = test system: L. infantum (MHOM/MA/67/ITMAP-263) wild-type strain (WT) promastigotes; type: cell-based, Leishmania infantum; details: for EC50: 72 h; for Selectivity Index: SI = CC50 (LM-1 macrophage)/EC50 Ldi WT
Description: as §1, §2

[4] = test system: L. infantum AmB1000.1 (resistant to amphotericin B) promastigotes; type: cell-based, Leishmania infantum; details: strain resistant to 1 µM amphotericin B; promastigotes, 72 h, 25 °C; 95% CI in brackets (n = 3); read-out: Ldi AmB-Res EC50
Description: as §1, §2

[5] = test system: L. infantum Sb2000.1 (resistant to antimony) promastigotes; type: cell-based, Leishmania infantum; details: strain resistant to 2 mM antimonials, 72 h, 25 °C, 95% CI in brackets (n = 3), read-out: Ldi Sb-Res EC50
Description: as §1, §2

[6] = MHOM/MA/67/ITMAP-263) wild-type strain (WT) promastigotes
[7] = LM-1 macrophages, 24 h, Alamar Blue, read-out: CC50
[8] = promastigotes, 25 °C, 95% confidence interval in brackets (n = 3), read-out: Ldi WT EC50

In the case of Almiramide C [compound 3], the “selectivity index (CC50/EC50)” value (Leishmania donovani) is listed as 17.4 and the “activity against Leishmania donovani” value (Leishmania donovani) is listed as “low μM activity”.
Work on `C#CCCCCC(=O)N[C@H](C(=O)N[C@H](C(=O)N[C@H](C(=O)N[C@@H](C)C(=O)N[C@@H](Cc1ccccc1)C(=O)NCCCCCCN)C(C)C)C(C)C)C(C)C` [peptide 16, HCC(CH2)4CO-Val-Val-Val-Ala-Phe-NH(CH2)6NH2] (Hept6ynoyl-VVVAF-{NH(CH2)6NH2}) yielded a CC50 at 24 h [1] of 446 µM, an EC50 [2] of 18.1 µM and an EC50 [3, 6] of 23.4 µM. The “Selectivity Index” value [3] was 19.2 and 19.0, the EC50 [4] was 20.8 µM and the EC50 [5] was 30.3 µM.
For `C#CCCCCC(=O)N[C@H](C(=O)N[C@H](C(=O)N[C@H](C(=O)N(C)[C@@H](C)C(=O)N[C@@H](Cc1ccccc1)C(=O)NCCCCCCN)C(C)C)C(C)C)C(C)C` [peptide 21, HCC(CH2)4CO-Val-Val-Val-Ala(Me)-Phe-NH(CH2)6NH2] (Hept6ynoyl-VVV[NMeA]F-{NH(CH2)6NH2}), the CC50 at 24 h [1] was 1440 µM, the EC50 [2] was 63.5 µM and the EC50 [3, 6] was 75.8 µM. For the same compound, the “Selectivity Index” value [3] was 19.1 and 18.9, the EC50 [4] was 65.7 µM and the EC50 [5] was 79.8 µM.
Compound `C#CCCCCC(=O)N(C)[C@H]1CCN([C@H](C(=O)N(C)[C@H](C(=O)N(C)[C@@H](C)C(=O)N(C)[C@@H](Cc2ccccc2)C(=O)O)C(C)C)C(C)C)C1=O` [peptide 26, HCC(CH2)4CO-Agl(Me)-Val-Val(Me)-Ala-Phe(Me)-OH] has a CC50 at 24 h [1] of 316 µM, an EC50 [2] of 224 µM and an EC50 [3, 6] of 217 µM. For the same compound, the “Selectivity Index” value [3] was 1.46, the EC50 [4] was 252 µM and the EC50 [5] was 220 µM.
Work on `C#CCCCCC(=O)N[C@H](C(=O)N[C@H]1CCN([C@H](C(=O)N[C@@H](C)C(=O)N[C@@H](Cc2ccccc2)C(=O)O)C(C)C)C1=O)C(C)C` [peptide 24, HCC(CH2)4CO-Val-Agl-Val-Ala-Phe-OH] yielded a CC50 at 24 h [1] of 398 µM, an EC50 [2] of 238 µM and an EC50 [3, 6] of 248 µM. The “Selectivity Index” value [3] was 1.6, the EC50 [4] was 261 µM and the EC50 [5] was 251 µM.
In the case of Almiramide B [compound 2], the “selectivity index (CC50/EC50)” value (Leishmania donovani) is listed as 21.8 and the “activity against Leishmania donovani” value (Leishmania donovani) is listed as “low μM activity”.
In the case of `C#CCCCCC(=O)N(C)[C@H](C(=O)N(C)[C@H]1CCN([C@H](C(=O)N(C)[C@@H](C)C(=O)N(C)[C@@H](Cc2ccccc2)C(=O)O)C(C)C)C1=O)C(C)C` [peptide 27, HCC(CH2)4CO-Val(Me)-Agl(Me)-Val-Ala(Me)-Phe(Me)-OH], the CC50 at 24 h [1, 7] is reported as 295 µM, the EC50 [2] is reported as over 300 µM and the “Selectivity Index” value [3] is reported as 1.0. For the same compound, the EC50 [3, 8] was 284 µM, the EC50 [4] was over 300 µM and the EC50 [5] was 296 µM.
With `C#CCCCCC(=O)N(C)[C@H](C(=O)N(C)[C@H](C(=O)N(C)[C@H](C(=O)N(C)[C@@H](C)C(=O)N(C)[C@@H](Cc1ccccc1)C(=O)O)C(C)C)C(C)C)C(C)C` [peptide 12, HCC(CH2)4CO-Val(Me)-Val(Me)-Val(Me)-Ala(Me)-Phe(Me)-OH] (Hept6ynoyl-[NMeV][NMeV][NMeV][NMeA][NMeF]-OH) the CC50 at 24 h [1, 7] was 281 µM, the EC50 [2] was 75.6 µM and the “Selectivity Index” value [3] was 4.1. The EC50 [3, 8] was 68.3 µM, the EC50 [4] was 79.6 µM and the EC50 [5] was 70.7 µM.
Compound `C#CCCCCC(=O)N[C@H]1CCN([C@H](C(=O)N[C@H](C(=O)N[C@@H](C)C(=O)N[C@@H](Cc2ccccc2)C(=O)NCCCCCCN)C(C)C)C(C)C)C1=O` [peptide 29, HCC(CH2)4CO-Agl-Val-Val-Ala-Phe-NH(CH2)6NH2] has a CC50 at 24 h [1] of 416 µM, an EC50 [2] of 67.9 µM and an EC50 [3, 6] of 75 µM. The “Selectivity Index” value [3] was 5.5, the EC50 [4] was 72 µM and the EC50 [5] was 90.4 µM.
`C#CCCCCC(=O)Nn1c(C)cn([C@H](C(=O)N[C@H](C(=O)N[C@@H](C)C(=O)N[C@@H](Cc2ccccc2)C(=O)O)C(C)C)C(C)C)c1=O` [peptide 36, HCC(CH2)4CO-(5-Me)Nai-Val-Val-Ala-Phe-OH] showed a CC50 at 24 h [1] of 436 µM, an EC50 [2] of over 300 µM and an EC50 [3, 8] of over 300 µM. The EC50 [4] was over 300 µM and the EC50 [5] was over 300 µM.
In the case of almiramide A [compound 1], the “activity against Leishmania donovani” value (Leishmania donovani) is listed as “inactive”.
Compound `C#CCCCCC(=O)N[C@H](C(=O)N[C@H](C(=O)N[C@H](C(=O)N[C@@H](C)C(=O)N(C)[C@@H](Cc1ccccc1)C(=O)NCCCCCCN)C(C)C)C(C)C)C(C)C` [peptide 22, HCC(CH2)4CO-Val-Val-Val-Ala-Phe(Me)-NH(CH2)6NH2] (Hept6ynoyl-VVVA[NMeF]-{NH(CH2)6NH2}) has a CC50 at 24 h [1] of 446 µM, an EC50 [2] of 27.8 µM and an EC50 [3, 6] of 29 µM. For the same compound, the “Selectivity Index” value [3] was 15.3, the EC50 [4] was 25.9 µM and the EC50 [5] was 25 µM.
In the case of `C#CCCCCC(=O)N[C@H](C(=O)N[C@H](C(=O)N[C@H](C(=O)N[C@H]1CCN([C@H](Cc2ccccc2)C(=O)NCCCCCCN)C1=O)C(C)C)C(C)C)C(C)C` [R-32, HCC(CH2)4CO-Val-Val-Val-Agl-D-Phe-NH(CH2)6NH2], the CC50 [1] is reported as 338 µM, the EC50 [2] is reported as 123 µM and the EC50 [3, 6] is reported as 92.6 µM. The “Selectivity Index” value [3] was 3.6, the EC50 [4] was 118 µM and the EC50 [5] was 111 µM.
